Like-named read-outs stand apart in the source and are kept apart here. Starred links: 1 amine or outer side, 2 acyl side, 3 side chain; linkers in the order of their positions; H or OH if unused. Positions of bridges follow the written chain, without caps; N, C: chain ends. Residues, ends and D or L forms follow the SMILES beside them. Groups on a side chain read outwards from the residue. *: point of attachment. C20 diacid = O=C(O)CCCCCCCCCCCCCCCCCCC(=O)*; C18 diacid = O=C(O)CCCCCCCCCCCCCCCCC(=O)*; γGlu = O=C(O)[C@H](CCC(=O)[*:2])N[*:1]; AEEA = NCCOCCOCC(=O)O
Target: T1, Amylin 3(a) receptor (human calcitonin receptor (CTa) with RAMP-3) (Homo sapiens, UniProt O60896+P30988)
T1 construct: expressed in transfected cells; host or cells: BHK570 (baby hamster kidney) cells, stably transfected, with CRE-luciferase reporter
Test: Amylin luciferase assay (CRE-luciferase reporter in BHK Amylin 3(a)//CRE-luc cells)
Type: cell-based
Description: It has previously been published (Poyner D R et al 2002, Pharmacological Reviews 54(2) 233-246) that activation of Amylin receptors (coexpression of Calcitonin receptor and receptor activity modifying peptides RAMPs) by Amylin leads to an increase in the intracellular concentration of cAMP. Consequently, transcription is activated at promotors containing multiple copies of the cAMP response element (CRE). It is thus possible to measure Amylin activity by use of a CRE luciferase reporter gene introduced into BHK cells also expressing an Amylin receptor.
2. Construction of an Amylin 3(a)/CRE-luc Cell Line
A BHK570 cell line stably transfected with the human calcitonin receptor (CTa) and a CRE-responsive luciferase reportergene. The cell line was further transfected with RAMP-3, using standard methods. This turns the Calcitonin receptor into an Amylin 3(a) receptor. Methotrexate, Neomycin, and Hygromycin are selection markers for luciferase, the Calcitonin receptor, and RAMP-3, respectively.
3. Amylin Luciferase Assay
To perform activity assays, BHK Amylin 3(a)//CRE-luc cells were seeded in white 96 well culture plates at a density of about 20.000 cells/well. The cells were in 100 μl growth medium (DMEM with 10% FBS, 1% Pen/Strep, 1 mM Na-pyruvate, 250 nM Methotrexate, 500 μg/ml Neomycin, and 400 μg/ml Hygromycin). After incubation overnight at 37° C. and 5% CO2, the growth medium was replaced by 50 μl/well assay medium (DMEM (without phenol red), Glumamax™, 10% FBS, and 10 mM Hepes, pH 7,4). Further, 50 μl/well of standard or sample in assay buffer were added. After 4 hours incubation at 37° C. and 5% CO2, the assay medium with standard or sample were removed and replaced by 100 μl/well PBS. Further, 100 μl/well LucLite™ was added. The plates were sealed and incubated at room temperature for 30 minutes. Finally, luminescence was measured on a TopCounter (Packard) in SPC (single photon counting) mode.

[1] = BHK570 cells with human calcitonin receptor (CTa), RAMP-3 and CRE-luciferase reporter, 4 hours incubation, read-out: Potency luciferase assay

T1 sequence (O60896 24-148): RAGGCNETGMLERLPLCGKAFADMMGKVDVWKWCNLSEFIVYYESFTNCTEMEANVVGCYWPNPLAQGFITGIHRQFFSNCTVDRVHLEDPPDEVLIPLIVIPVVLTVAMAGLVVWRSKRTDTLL
T1 sequence (P30988 25-474): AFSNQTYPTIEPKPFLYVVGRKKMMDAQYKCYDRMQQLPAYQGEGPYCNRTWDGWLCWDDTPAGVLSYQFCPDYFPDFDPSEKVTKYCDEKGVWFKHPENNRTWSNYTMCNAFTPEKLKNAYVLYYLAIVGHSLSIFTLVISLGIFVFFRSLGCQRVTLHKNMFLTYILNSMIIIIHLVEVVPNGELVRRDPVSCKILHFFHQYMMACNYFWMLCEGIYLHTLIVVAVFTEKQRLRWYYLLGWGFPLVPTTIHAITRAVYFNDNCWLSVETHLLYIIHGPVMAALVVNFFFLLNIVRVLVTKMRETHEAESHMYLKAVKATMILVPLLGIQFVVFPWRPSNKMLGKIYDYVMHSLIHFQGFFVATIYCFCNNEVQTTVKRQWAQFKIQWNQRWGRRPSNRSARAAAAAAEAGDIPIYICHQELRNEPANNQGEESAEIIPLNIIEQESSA

Row | EC50 [1] [nM] | SMILES | EC50 [nM]
1 |  | CC[C@H](C)[C@H](NC(=O)[C@@H]1CCCN1C(=O)CNC(=O)[C@H](Cc1ccccc1)NC(=O)[C@H](CC(N)=O)NC(=O)[C@H](CC(N)=O)NC(=O)[C@H](CO)NC(=O)[C@H](CO)NC(=O)[C@H](Cc1c[nH]cn1)NC(=O)[C@@H](NC(=O)[C@H](CC(C)C)NC(=O)[C@H](Cc1ccccc1)NC(=O)[C@H](CC(N)=O)NC(=O)[C@H](C)NC(=O)[C@H](CC(C)C)NC(=O)[C@H](CCCNC(=N)N)NC(=O)[C@H](CCC(N)=O)NC(=O)[C@@H](NC(=O)[C@H](C)NC(=O)[C@@H]1CSSC[C@H](NC(=O)[C@@H](N)CCCCN)C(=O)N[C@@H](CCCCNC(=O)COCCOCCNC(=O)COCCOCCNC(=O)CC[C@H](NC(=O)CCCCCCCCCCCCCCCCC(=O)O)C(=O)O)C(=O)N[C@@H]([C@@H](C)O)C(=O)N[C@@H](C)C(=O)N[C@@H]([C@@H](C)O)C(=O)N1)[C@@H](C)O)C(C)C)C(=O)N[C@@H](CC(C)C)C(=O)N1CCC[C@H]1C(=O)N1CCC[C@H]1C(=O)N[C@H](C(=O)N[C@@H](CC(N)=O)C(=O)N[C@H](C(=O)NCC(=O)N[C@@H](CO)C(=O)N[C@@H](CC(N)=O)C(=O)N[C@H](C(=O)N[C@@H](Cc1ccc(O)cc1)C(N)=O)[C@@H](C)O)C(C)C)[C@@H](C)O [Example 11, N-epsilon3-[2-(2-{2-[2-(2-{2-[(S)-4-carboxy-4-(17-carboxyheptadecanoylamino)butyrylamino]ethoxy}ethoxy)acetylamino]ethoxy}ethoxy)acetyl]-[Lys3]-pramlintide (1-37)] (H-KCK([AEEA-AEEA-γGlu-C18 diacid])TATCATQRLANFLVHSSNNFGPILPPTNVGSNTY-NH2; disulfide 2-7; N-terminus assumed) | 0.2
2 | 0.3 | CC[C@H](C)[C@H](NC(=O)[C@@H]1CCCN1C(=O)CNC(=O)[C@H](Cc1ccccc1)NC(=O)[C@H](CC(N)=O)NC(=O)[C@H](CC(N)=O)NC(=O)[C@H](CO)NC(=O)[C@H](CO)NC(=O)[C@H](Cc1c[nH]cn1)NC(=O)[C@@H](NC(=O)[C@H](CC(C)C)NC(=O)[C@H](Cc1ccccc1)NC(=O)[C@H](CC(N)=O)NC(=O)[C@H](C)NC(=O)[C@H](CC(C)C)NC(=O)[C@H](CCCNC(=N)N)NC(=O)[C@H](CCC(N)=O)NC(=O)[C@@H](NC(=O)[C@H](C)NC(=O)[C@@H]1CSSC[C@H](NC(=O)[C@@H](N)CCCCN)C(=O)N[C@@H](CCCCNC(=O)COCCOCCNC(=O)COCCOCCNC(=O)CC[C@H](NC(=O)CCCCCCCCCCCCCCCCCCC(=O)O)C(=O)O)C(=O)N[C@@H]([C@@H](C)O)C(=O)N[C@@H](C)C(=O)N[C@@H]([C@@H](C)O)C(=O)N1)[C@@H](C)O)C(C)C)C(=O)N[C@@H](CC(C)C)C(=O)N1CCC[C@H]1C(=O)N1CCC[C@H]1C(=O)N[C@H](C(=O)N[C@@H](CC(N)=O)C(=O)N[C@H](C(=O)NCC(=O)N[C@@H](CO)C(=O)N[C@@H](CC(N)=O)C(=O)N[C@H](C(=O)N[C@@H](Cc1ccc(O)cc1)C(N)=O)[C@@H](C)O)C(C)C)[C@@H](C)O [Example 12, N-epsilon3-[2-(2-{2-[2-(2-{2[(S)-4-carboxy-4-(19-carboxynonadecanoylamino)butyrylamino]ethoxy}ethoxy)acetylamino]ethoxy}ethoxy)acetyl]-[Lys3]-pramlintide (1-37)] (H-KCK([AEEA-AEEA-γGlu-C20 diacid])TATCATQRLANFLVHSSNNFGPILPPTNVGSNTY-NH2; disulfide 2-7; N-terminus and C-terminus assumed) | 
3 | 0.06 | CC[C@H](C)[C@H](NC(=O)[C@@H]1CCCN1C(=O)CNC(=O)[C@H](Cc1ccccc1)NC(=O)[C@H](CC(N)=O)NC(=O)[C@H](CC(N)=O)NC(=O)[C@H](CO)NC(=O)[C@H](CO)NC(=O)[C@H](Cc1c[nH]cn1)NC(=O)[C@@H](NC(=O)[C@H](CC(C)C)NC(=O)[C@H](Cc1ccccc1)NC(=O)[C@H](CC(N)=O)NC(=O)[C@H](C)NC(=O)[C@H](CC(C)C)NC(=O)[C@H](CCCNC(=N)N)NC(=O)[C@H](CCC(N)=O)NC(=O)[C@@H](NC(=O)[C@H](C)NC(=O)[C@@H]1CSSC[C@H](NC(=O)[C@@H](N)CCCCN)C(=O)N[C@@H](CCCCNC(=O)COCCOCCNC(=O)COCCOCCNC(=O)CCCCCCCCCCCCCCCCCCC(=O)O)C(=O)N[C@@H]([C@@H](C)O)C(=O)N[C@@H](C)C(=O)N[C@@H]([C@@H](C)O)C(=O)N1)[C@@H](C)O)C(C)C)C(=O)N[C@@H](CC(C)C)C(=O)N1CCC[C@H]1C(=O)N1CCC[C@H]1C(=O)N[C@H](C(=O)N[C@@H](CC(N)=O)C(=O)N[C@H](C(=O)NCC(=O)N[C@@H](CO)C(=O)N[C@@H](CC(N)=O)C(=O)N[C@H](C(=O)N[C@@H](Cc1ccc(O)cc1)C(N)=O)[C@@H](C)O)C(C)C)[C@@H](C)O [Example 13, N-epsilon3-(2-{2-[2-(2-{2-[2-(19-carboxynonadecanoylamino)ethoxy]ethoxy}acetylamino)ethoxy]ethoxy}acetyl)-[Lys3]-pramlintide (1-37)] (H-KCK([AEEA-AEEA-C20 diacid])TATCATQRLANFLVHSSNNFGPILPPTNVGSNTY-NH2; disulfide 2-7; N-terminus assumed) | 
4 | 0.05 | CC[C@H](C)[C@H](NC(=O)[C@@H]1CCCN1C(=O)CNC(=O)[C@H](Cc1ccccc1)NC(=O)[C@H](CC(N)=O)NC(=O)[C@H](CC(N)=O)NC(=O)[C@H](CO)NC(=O)[C@H](CO)NC(=O)[C@H](Cc1c[nH]cn1)NC(=O)[C@@H](NC(=O)[C@H](CC(C)C)NC(=O)[C@H](Cc1ccccc1)NC(=O)[C@H](CC(N)=O)NC(=O)[C@H](C)NC(=O)[C@H](CC(C)C)NC(=O)[C@H](CCCNC(=N)N)NC(=O)[C@H](CCC(N)=O)NC(=O)[C@@H](NC(=O)[C@H](C)NC(=O)[C@@H]1CSSC[C@H](NC(=O)[C@@H](N)CCCCN)C(=O)N[C@@H](CCCCNC(=O)CCCCCCCCCCCCCCCCCCC(=O)O)C(=O)N[C@@H]([C@@H](C)O)C(=O)N[C@@H](C)C(=O)N[C@@H]([C@@H](C)O)C(=O)N1)[C@@H](C)O)C(C)C)C(=O)N[C@@H](CC(C)C)C(=O)N1CCC[C@H]1C(=O)N1CCC[C@H]1C(=O)N[C@H](C(=O)N[C@@H](CC(N)=O)C(=O)N[C@H](C(=O)NCC(=O)N[C@@H](CO)C(=O)N[C@@H](CC(N)=O)C(=O)N[C@H](C(=O)N[C@@H](Cc1ccc(O)cc1)C(N)=O)[C@@H](C)O)C(C)C)[C@@H](C)O [Example 14, N-epsilon3-(19-carboxynonadecanoyl)-[Lys3]-pramlintide (1-37)] (H-KCK(C20 diacid)TATCATQRLANFLVHSSNNFGPILPPTNVGSNTY-NH2; disulfide 2-7; N-terminus assumed) | 
5 | 0.03 | CC(C)C[C@H](NC(=O)[C@H](CC(N)=O)NC(=O)[C@H](CC(N)=O)NC(=O)[C@H](CO)NC(=O)[C@H](CO)NC(=O)[C@H](CCCNC(=N)N)NC(=O)[C@@H](NC(=O)[C@H](CC(C)C)NC(=O)[C@H](Cc1ccccc1)NC(=O)[C@H](CC(N)=O)NC(=O)[C@H](C)NC(=O)[C@H](CC(C)C)NC(=O)[C@H](CCCNC(=N)N)NC(=O)[C@H](CCC(N)=O)NC(=O)[C@@H](NC(=O)[C@H](C)NC(=O)[C@@H]1CSSC[C@H](NC(=O)CC[C@H](NC(=O)CCCCCCCCCCCCCCCCC(=O)O)C(=O)O)C(=O)N[C@@H](CC(N)=O)C(=O)N[C@@H]([C@@H](C)O)C(=O)N[C@@H](C)C(=O)N[C@@H]([C@@H](C)O)C(=O)N1)[C@@H](C)O)C(C)C)C(=O)NCC(=O)N1CCC[C@H]1C(=O)N[C@H](C(=O)N[C@@H](CC(C)C)C(=O)N1CCC[C@H]1C(=O)N1CCC[C@H]1C(=O)N[C@H](C(=O)N[C@@H](CC(N)=O)C(=O)N[C@H](C(=O)NCC(=O)N[C@@H](CO)C(=O)N[C@@H](CC(N)=O)C(=O)N[C@H](C(=O)N[C@@H](Cc1ccc(O)cc1)C(N)=O)[C@@H](C)O)C(C)C)[C@@H](C)O)C(C)C [Example 16, N-alpha-[(S)-4-carboxy-4-(17-carboxyheptadecanoylamino)butyryl]-[Arg18,Leu23,Val26]-pramlintide (2-37)] | 

From US20100222269A1, “IMPROVED DERIVATIVES OF AMYLIN” (priority 2007, published 2010)
